Common to all, as to format: biochemical
In assay [1] the target is T1, human Src enzyme (Homo sapiens, UniProt P12931).
T1 construct: purchased Carna Biosciences, Inc. 08-173
Put plainly: Src enzyme inhibitory activity (time-resolved fluorometry, biotinylated peptide phosphorylation). As to conditions: read-out: SRC_IC50. The method, boiled down: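 Compounds were tested for blocking tyrosine phosphorylation of a biotinylated peptide substrate by recombinant human Src. Phosphorylated product was quantified by time-resolved fluorometry using europium cryptate and XL665 conjugates, and IC50 was calculated against the compound-free control.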

Assay [2] concerns the target T2, human Yes1 enzyme (Homo sapiens, UniProt P07947).
T2 construct: made in house
Put plainly: Yes1 enzyme inhibitory activity (time-resolved fluorometry, biotinylated peptide phosphorylation). The following applies: read-out: YES_IC50. The method, boiled down: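 Inhibition was expressed against a compound-free control to give IC50, using TR-FRET read-out (Eu-cryptate anti-pTyr antibody, streptavidin-XL665).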

The target of assay [3] is T3, human Lck enzyme (Homo sapiens, UniProt P06239).
T3 construct: purchased Carna Biosciences, Inc. 08-170
T3 sequence (P06239 whole entry): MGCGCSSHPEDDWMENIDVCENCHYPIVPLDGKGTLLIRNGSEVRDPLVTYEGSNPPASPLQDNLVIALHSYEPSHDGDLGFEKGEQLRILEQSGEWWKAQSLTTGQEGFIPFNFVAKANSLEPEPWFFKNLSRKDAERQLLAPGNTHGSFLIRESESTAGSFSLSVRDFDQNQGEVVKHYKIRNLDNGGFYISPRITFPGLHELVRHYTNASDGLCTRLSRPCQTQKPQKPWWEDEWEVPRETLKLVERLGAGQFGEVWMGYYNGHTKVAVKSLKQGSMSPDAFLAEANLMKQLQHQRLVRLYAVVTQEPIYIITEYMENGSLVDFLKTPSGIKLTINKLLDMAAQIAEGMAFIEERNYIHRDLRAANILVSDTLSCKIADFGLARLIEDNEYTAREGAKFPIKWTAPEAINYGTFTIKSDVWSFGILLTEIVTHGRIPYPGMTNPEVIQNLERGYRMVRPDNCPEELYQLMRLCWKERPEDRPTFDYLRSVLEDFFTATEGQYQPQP
Put plainly: Lck enzyme inhibitory activity (time-resolved fluorometry, biotinylated peptide phosphorylation). The following applies: read-out: LCK_IC50. The method, boiled down: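 Readout pairs a europium cryptate-labelled anti-phosphotyrosine antibody with XL665-streptavidin, measured by time-resolved fluorescence. IC50 derived from percent inhibition against untreated controls.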

Setting [4] is: biotinylated peptide phosphorylation.

Like-named read-outs stand apart in the source and are kept apart here.

T1 sequence (P12931 whole entry): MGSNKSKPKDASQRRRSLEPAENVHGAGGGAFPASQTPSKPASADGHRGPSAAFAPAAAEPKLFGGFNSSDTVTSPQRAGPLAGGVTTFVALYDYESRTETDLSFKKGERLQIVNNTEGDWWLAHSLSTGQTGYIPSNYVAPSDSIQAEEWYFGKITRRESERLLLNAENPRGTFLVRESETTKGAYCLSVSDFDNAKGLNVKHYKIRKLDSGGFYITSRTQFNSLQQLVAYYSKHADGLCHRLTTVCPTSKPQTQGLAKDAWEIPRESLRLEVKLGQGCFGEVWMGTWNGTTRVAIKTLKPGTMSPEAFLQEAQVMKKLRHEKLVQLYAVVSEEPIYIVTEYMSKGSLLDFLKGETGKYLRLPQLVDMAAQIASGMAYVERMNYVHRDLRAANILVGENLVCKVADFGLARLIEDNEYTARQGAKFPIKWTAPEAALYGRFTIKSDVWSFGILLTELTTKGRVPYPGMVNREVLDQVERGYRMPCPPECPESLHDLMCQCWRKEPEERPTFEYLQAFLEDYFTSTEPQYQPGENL
T2 sequence (P07947 whole entry): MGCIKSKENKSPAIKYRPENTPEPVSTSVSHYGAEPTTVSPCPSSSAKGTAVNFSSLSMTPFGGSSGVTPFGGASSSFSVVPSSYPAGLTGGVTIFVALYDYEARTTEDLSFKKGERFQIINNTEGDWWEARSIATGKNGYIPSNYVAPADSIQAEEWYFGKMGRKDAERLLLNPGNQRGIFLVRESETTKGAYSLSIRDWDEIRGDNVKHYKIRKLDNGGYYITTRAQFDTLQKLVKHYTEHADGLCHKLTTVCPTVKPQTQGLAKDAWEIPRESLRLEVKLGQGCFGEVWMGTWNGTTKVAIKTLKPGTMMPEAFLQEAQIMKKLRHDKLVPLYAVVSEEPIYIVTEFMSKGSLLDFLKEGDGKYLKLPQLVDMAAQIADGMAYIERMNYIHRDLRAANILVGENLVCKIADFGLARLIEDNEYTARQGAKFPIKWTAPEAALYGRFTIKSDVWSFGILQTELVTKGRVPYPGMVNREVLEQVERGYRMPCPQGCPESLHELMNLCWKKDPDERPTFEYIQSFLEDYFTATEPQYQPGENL

For `COc1cc2cc(C(=O)c3cnn(-c4cnc(Oc5ccccc5F)cc4C)c3N)[nH]c2cc1NS(=O)(=O)CC(=O)N1CCCC1` [Example 4-10-014, N-[2-[5-amino-1-[6-(2-fluorophenoxy)-4-methylpyridin-3-yl]pyrazole-4-carbonyl]-5-methoxy-1H-indol-6-yl]-2-oxo-2-pyrrolidin-1-ylethanesulfonamide], the IC50 in assay [1] (setting [4]) came out at 29 nM; in assay [2] (setting [4]), 0.54 nM; in assay [3] (setting [4]), 10 nM.

With `Cc1cc(Oc2ccccc2F)ncc1-n1ncc(C(=O)c2cc3cc(SC(F)F)c(N4C(=O)NC(C)(C)C4=O)cc3[nH]2)c1N` [Example 5-1-359, 3-[2-[5-amino-1-[6-(2-fluorophenoxy)-4-methylpyridin-3-yl]pyrazole-4-carbonyl]-5-(difluoromethylsulfanyl)-1H-indol-6-yl]-5,5-dimethylimidazolidine-2,4-dione], the results for the IC50 in assay [1], in assay [2] and in assay [3] were 130 nM, 6 nM and 25 nM, respectively.

Take `Cc1cc(Oc2ccccc2F)ccc1-n1ncc(C(=O)c2cc3cc(OCC(F)F)c(C4CCN(C(=O)CN)CC4)cc3[nH]2)c1N` [Example 4-18-004, 2-amino-1-[4-[2-[5-amino-1-[4-(2-fluorophenoxy)-2-methylphenyl]pyrazole-4-carbonyl]-5-(2,2-difluoroethoxy)-1H-indol-6-yl]piperidin-1-yl]ethanone]: the IC50 in assay [1] (setting [4]) was found to be 16 nM; in assay [2] (setting [4]), 1.6 nM; in assay [3] (setting [4]) it was 9.2 nM.

In the case of `Cc1cc(Oc2ccccc2F)ncc1-n1ncc(C(=O)c2cc3cc(SC(F)F)c(NS(=O)(=O)CCCF)cc3[nH]2)c1N` [Example 5-1-339, N-[2-[5-amino-1-[6-(2-fluorophenoxy)-4-methylpyridin-3-yl]pyrazole-4-carbonyl]-5-(difluoromethylsulfanyl)-1H-indol-6-yl]-3-fluoropropane-1-sulfonamide], the IC50 in assay [1] turned out to be 540 nM; in assay [2], 5.7 nM; in assay [3], 74 nM.

`CC(=O)N1CCC(c2cc3[nH]c(C(=O)c4cnn(-c5ccc(Oc6ccccc6F)cc5C)c4N)cc3cc2OC(F)F)CC1` [Example 4-17-002, 1-[4-[2-[5-amino-1-[4-(2-fluorophenoxy)-2-methylphenyl]pyrazole-4-carbonyl]-5-(difluoromethoxy)-1H-indol-6-yl]piperidin-1-yl]ethanone]: the IC50 in assay [1] (setting [4]) was 43 nM; in assay [2] (setting [4]) it was 10 nM; in assay [3] (setting [4]), 18 nM.

For the compound `Cc1cc(Oc2ccccc2F)ccc1-n1ncc(C(=O)c2cc3cc(OCC(F)F)c(N4CCCS4(=O)=O)cc3[nH]2)c1N` [Example 4-25-009, [5-amino-1-[4-(2-fluorophenoxy)-2-methylphenyl]pyrazol-4-yl]-[5-(2,2-difluoroethoxy)-6-(1,1-dioxo-1,2-thiazolidin-2-yl)-1H-indol-2-yl]methanone], the IC50 is 32 nM in assay [1] (setting [4]), 3.5 nM in assay [2] (setting [4]) and 18 nM in assay [3] (setting [4]).

For the compound `Cc1cc(Oc2c(F)cccc2F)ncc1-n1ncc(C(=O)c2cc3cc(OC4CCN(C(C)C)CC4)c(NS(C)(=O)=O)cc3[nH]2)c1N` [Example 5-1-184, N-[2-[5-amino-1-[6-(2,6-difluorophenoxy)-4-methylpyridin-3-yl]pyrazole-4-carbonyl]-5-(1-propan-2-ylpiperidin-4-yl)oxy-1H-indol-6-yl] methanesulfonamide], the figures for the IC50 in assay [1], in assay [2] and in assay [3] were 11 nM, 0.43 nM and 2.6 nM, respectively.

Take `Cc1cc2cc(C(=O)c3cnn(-c4c(C)cc(Oc5ccccc5F)cc4F)c3N)[nH]c2cc1NS(=O)(=O)CC(=O)N1CCOCC1` [Example 4-10-009, N-[2-[5-amino-1-[2-fluoro-4-(2-fluorophenoxy)-6-methylphenyl]pyrazole-4-carbonyl]-5-methyl-1H-indol-6-yl]-2-morpholin-4-yl-2-oxoethanesulfonamide]: the IC50 amounted to 33 nM in assay [1] (setting [4]), 2.7 nM in assay [2] (setting [4]) and 19 nM in assay [3] (setting [4]).

On to `Cc1cc(Oc2cccc(Cl)c2)ncc1-n1ncc(C(=O)c2cc3cc(F)c(NS(=O)(=O)CCCF)cc3[nH]2)c1N` [Example 4-2-026, N-[2-[5-amino-1-[6-(3-chlorophenoxy)-4-methylpyridin-3-yl]pyrazole-4-carbonyl]-5-fluoro-1H-indol-6-yl]-3-fluoropropane-1-sulfonamide], for which the IC50 in assay [1] (setting [4]) worked out at 120 nM; in assay [2] (setting [4]) it was 3.6 nM; in assay [3] (setting [4]) it was 37 nM.

`Cc1cc(Oc2ccccc2F)ccc1-n1ncc(C(=O)c2cc3cc(OC4CCN(C(C)C)CC4)c(N4CCOCC4)cc3[nH]2)c1N` [Example 5-1-190, [5-amino-1-[4-(2-fluorophenoxy)-2-methylphenyl]pyrazol-4-yl]-[6-morpholin-4-yl-5-(1-propan-2-ylpiperidin-4-yl)oxy-1H-indol-2-yl]methanone]: the IC50 amounted to 1.8 nM in assay [1], 0.41 nM in assay [2] and 1.3 nM in assay [3].

As to `CCN(CC)C(=O)CS(=O)(=O)Nc1cc2[nH]c(C(=O)c3cnn(-c4cnc(Oc5ccccc5F)cc4C)c3N)cc2cc1F` [Example 4-10-001, 2-{{2-{5-amino-1-[6-(2-fluorophenoxy)-4-methylpyridin-3-yl]pyrazole-4-carbonyl}-5-fluoro-1H-indol-6-yl}sulfamoyl}-N,N-diethylacetamide], the IC50 in assay [1] (setting [4]) was determined as 86 nM; in assay [2] (setting [4]) it was 2.1 nM; in assay [3] (setting [4]), 18 nM.

With `Cc1cc2cc(C(=O)c3cnn(-c4cnc(Oc5c(F)cccc5F)cc4C)c3N)[nH]c2cc1NS(=O)(=O)c1cc(F)cc(F)c1` [Example 5-1-561, N-[2-[5-amino-1-[6-(2,6-difluorophenoxy)-4-methylpyridin-3-yl]pyrazole-4-carbonyl]-5-methyl-1H-indol-6-yl]-3,5-difiuorobenzenesulfonamide], the IC50 in assay [1] (setting [4]) worked out at 940 nM; in assay [2] (setting [4]) it was 17 nM; in assay [3] (setting [4]), 270 nM.

On to `Cc1cc(Oc2cccc(Cl)c2)ncc1-n1ncc(C(=O)c2cc3cc(Cl)c(NS(C)(=O)=O)cc3[nH]2)c1N` [Example 4-2-091, N-[2-[5-amino-1-[6-(3-chlorophenoxy)-4-methylpyridin-3-yl]pyrazole-4-carbonyl]-5-chloro-1H-indol-6-yl]methanesulfonamide], for which the IC50 stood at 350 nM in assay [1] (setting [4]), 9.7 nM in assay [2] (setting [4]) and 140 nM in assay [3] (setting [4]).

Turning to `Cc1cc2cc(C(=O)c3cnn(-c4cnc(Oc5ccccc5F)cc4C)c3N)[nH]c2cc1NS(=O)(=O)c1cccc(C#N)n1` [Example 5-1-479, N-[2-[5-amino-1-[6-(2-fluorophenoxy)-4-methylpyridin-3-yl]pyrazole-4-carbonyl]-5-methyl-1H-indol-6-yl]-6-cyanopyridine-2-sulfonamide], the IC50 in assay [1] (setting [4]) amounted to 770 nM; in assay [2] (setting [4]) it was 3.3 nM; in assay [3] (setting [4]), 170 nM.

Regarding `Cc1cc2cc(C(=O)c3cnn(-c4cnc(Oc5ccccc5Cl)cc4C)c3N)[nH]c2cc1NS(=O)(=O)N1CCOCC1` [Example 4-2-110, N-[2-[5-amino-1-[6-(2-chlorophenoxy)-4-methylpyridin-3-yl]pyrazole-4-carbonyl]-5-methyl-1H-indol-6-yl]morpholine-4-sulfonamide], the IC50 in assay [1] (setting [4]) turned out to be 250 nM; in assay [2] (setting [4]) it was 8.7 nM; in assay [3] (setting [4]), 110 nM.

These data come from patent US10479780B2, “Aminopyrazole derivatives” (Chugai Seiyaku Kabushiki Kaisha, priority 2015, dated 2019).
